# Laboratory results reported in PubChem BioAssay (NCI).
#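 Results reflect a 48-hour exposure of cells in 96-well plates to compound at five concentrations. Abbreviation: GI50, concentration required for 50% inhibition of growth. Definition used: TGI = concentration required for complete inhibition of growth.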
# Tests used:
# Experiment in all cases: growth of human tumour cells (NCI), 48 h
# HCT-116 colon = tested on: HCT-116 colon
# NCI-H23 lung = tested on: NCI-H23 lung
# SF-268 CNS = tested on: SF-268 CNS
# A549 NSCLC = tested on: A549 NSCLC
# OVCAR-8 ovarian = tested on: OVCAR-8 ovarian
# SK-MEL-2 melanoma = tested on: SK-MEL-2 melanoma
# HCC-2998 colon = tested on: HCC-2998 colon
# MDA-MB-435 = tested on: MDA-MB-435
# MDA-MB-231 breast = tested on: MDA-MB-231 breast
# BT-549 breast = tested on: BT-549 breast
SMILES,TGI (HCT-116 colon) [µM],TGI (NCI-H23 lung) [µM],TGI (SF-268 CNS) [µM],TGI (A549 NSCLC) [µM],TGI (OVCAR-8 ovarian) [µM],TGI (SK-MEL-2 melanoma) [µM],TGI (HCC-2998 colon) [µM],TGI (MDA-MB-435) [µM],TGI (MDA-MB-231 breast) [µM],GI50 (HCC-2998 colon) [µM],GI50 (MDA-MB-435) [µM],GI50 (BT-549 breast) [µM],TGI (BT-549 breast) [µM],GI50 (HCT-116 colon) [µM],GI50 (NCI-H23 lung) [µM],GI50 (SF-268 CNS) [µM],GI50 (MDA-MB-231 breast) [µM],GI50 (A549 NSCLC) [µM],GI50 (OVCAR-8 ovarian) [µM],GI50 (SK-MEL-2 melanoma) [µM]
CCCN(CCC)C(=O)c1nc(N)nc(-c2ccc(OC)cc2)c1-c1ccc(OC)cc1,> 100,> 100,> 100,> 100,> 100,> 100,–,–,–,–,–,–,–,–,–,–,–,–,–,–
O=C1CNC(=O)c2[nH]cnc2N1,–,> 100,> 100,> 100,> 100,–,> 100,–,–,–,–,–,–,–,–,–,–,–,–,–
CCOc1ccc(NCC2CC/C(=C\c3ccccc3OC)C2=O)cc1 (centres undefined),14.5,34.7,20.8,35.6,13,35.2,25.8,–,–,–,–,–,–,–,–,–,–,–,–,–
C/C(CC(=O)Nc1ccccc1C)=N/NS(=O)(=O)c1ccc(C)cc1,> 100,> 100,> 100,> 100,> 100,> 100,> 100,–,–,–,–,–,–,–,–,–,–,–,–,–
Cc1ccc(S(=O)(=O)OC(COC(=O)c2ccccc2)C(OS(=O)(=O)c2ccc(C)cc2)C(OS(=O)(=O)c2ccc(C)cc2)C(COC(=O)c2ccccc2)OS(=O)(=O)c2ccc(C)cc2)cc1 (centres undefined),> 100,> 100,> 100,> 100,> 100,> 100,> 100,–,–,–,–,–,–,–,–,–,–,–,–,–
CC(C(=O)c1ccccc1)C1(O)C(=O)Nc2ccc(Cl)cc21 (centres undefined),> 100,> 100,> 100,> 100,> 100,> 100,> 100,–,–,–,–,–,–,–,–,–,–,–,–,–
COC(=O)C1CC(OC(C)=O)C=C2C(=O)CCC21 (centres undefined),29.8,–,38.8,> 100,37.6,79.9,> 100,–,–,–,–,–,–,–,–,–,–,–,–,–
CCOC(=O)C1=C(C)N(NC(N)=O)C2(N)N(NC(N)=O)C(C)=C(C(=O)OCC)C12C(=O)OCC (centres undefined),> 100,–,> 100,> 100,> 100,> 100,> 100,–,–,–,–,–,–,–,–,–,–,–,–,–
COC1CCC(OC)C(C2(C3CC(OC)CCC3OC)OC(=O)c3ccccc32)C1 (centres undefined),> 100,> 100,> 100,> 100,> 100,> 100,> 100,–,–,–,–,–,–,–,–,–,–,–,–,–
CC(=O)OC12c3ccccc3-c3ccccc3C1C(C(=O)O)C2C(=O)O (centres undefined),–,> 10,> 10,–,> 10,> 10,> 10,> 10,> 10,–,–,–,–,–,–,–,–,–,–,–
Cc1cc(C)c(C(=O)O)c(SSc2cc(C)cc(C)c2C(=O)O)c1,–,> 100,> 100,> 100,> 100,> 100,–,–,–,–,–,–,–,–,–,–,–,–,–,–
O=C(Nc1ccccc1-c1nn(CN2CCNCC2)c(=S)n(CN2CCNCC2)c1=O)C(F)(F)F,32.5,32.6,41.8,52.4,53.5,33.5,33.4,–,–,–,–,–,–,–,–,–,–,–,–,–
O=C1C(=O)c2ccccc2C(O)=C1CCCc1ccc(C2CCCCC2)cc1,14.3,61.4,49.6,> 100,> 100,–,61.4,22.6,31,11.6,3.64,3.19,39.3,2.01,4.14,3.8,10.4,3.93,6.01,–
COc1ccc2oc(-c3ccc(OC)c(OC)c3OC)cc(=O)c2c1,> 100,> 100,> 100,> 100,–,> 100,> 100,–,–,–,–,–,–,–,–,–,–,–,–,–
O=C1C=Cc2c1ccc1ccccc21,> 100,85.2,> 100,65.8,73.6,> 100,–,42.9,53.6,–,14.9,31.4,89.9,27,27.4,28.3,15,18.3,25.3,72.9
CC1(C)OC(=O)C(C#N)=C1C[n+]1ccccc1,–,> 10,> 10,–,> 10,> 10,> 10,> 10,> 10,–,–,–,–,–,–,–,–,–,–,–
NCCNC(=O)c1cccc2cc3ccccc3nc12,8.06,10.6,3.73,> 100,> 22.2,7.81,21.2,–,–,–,–,–,–,–,–,–,–,–,–,–
C=CCC1(C(=O)OC(C)(C)C)C(OC)=C(C(=O)OC(C)(C)C)C2C1C(C(=O)OC(C)(C)C)=C(OC)C2(CC=C)C(=O)OC(C)(C)C (centres undefined),–,> 100,> 100,> 100,> 100,> 100,> 100,–,–,–,–,–,–,–,–,–,–,–,–,–
